Among the data in patent publication US10308639B2, “Phosphatidylinositol 3-kinase inhibitors” (Gilead Sciences, Inc., priority 2014, dated 2019) are IC50 values, retold here.

What all share (assay type): biochemical
In one experiment the target is T1, PI3Kγ (Homo sapiens, UniProt P48736).
T1 construct: made in house
Kind of experiment: TR-FRET enzymatic activity assay, PI3Kγ. To be noted: Table 2a; same assay; read-out: PI3Kγ IC50. The gist of the method:
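Each PI3K isoform is tested in an enzymatic format. Signal comes from time-resolved fluorescence energy transfer.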
A general note: Time-resolved FRET reads energy transfer from a long-lived donor to a nearby acceptor.

The target of a further experiment is T2, PI3Kδ (Homo sapiens, UniProt O00329).
T2 construct: made in house
Kind of experiment: TR-FRET enzymatic activity assay, PI3Kδ. The conditions noted are these: Table 2a; same assay.

The next experiment deals with T3, PI3Kβ (Homo sapiens, UniProt P42338).
T3 construct: made in house
Briefly: TR-FRET enzymatic activity assay, PI3Kβ. The conditions noted are these: Table 2a; same assay.

The structures appear in SMILES notation.

T3 sequence (P42338 whole entry): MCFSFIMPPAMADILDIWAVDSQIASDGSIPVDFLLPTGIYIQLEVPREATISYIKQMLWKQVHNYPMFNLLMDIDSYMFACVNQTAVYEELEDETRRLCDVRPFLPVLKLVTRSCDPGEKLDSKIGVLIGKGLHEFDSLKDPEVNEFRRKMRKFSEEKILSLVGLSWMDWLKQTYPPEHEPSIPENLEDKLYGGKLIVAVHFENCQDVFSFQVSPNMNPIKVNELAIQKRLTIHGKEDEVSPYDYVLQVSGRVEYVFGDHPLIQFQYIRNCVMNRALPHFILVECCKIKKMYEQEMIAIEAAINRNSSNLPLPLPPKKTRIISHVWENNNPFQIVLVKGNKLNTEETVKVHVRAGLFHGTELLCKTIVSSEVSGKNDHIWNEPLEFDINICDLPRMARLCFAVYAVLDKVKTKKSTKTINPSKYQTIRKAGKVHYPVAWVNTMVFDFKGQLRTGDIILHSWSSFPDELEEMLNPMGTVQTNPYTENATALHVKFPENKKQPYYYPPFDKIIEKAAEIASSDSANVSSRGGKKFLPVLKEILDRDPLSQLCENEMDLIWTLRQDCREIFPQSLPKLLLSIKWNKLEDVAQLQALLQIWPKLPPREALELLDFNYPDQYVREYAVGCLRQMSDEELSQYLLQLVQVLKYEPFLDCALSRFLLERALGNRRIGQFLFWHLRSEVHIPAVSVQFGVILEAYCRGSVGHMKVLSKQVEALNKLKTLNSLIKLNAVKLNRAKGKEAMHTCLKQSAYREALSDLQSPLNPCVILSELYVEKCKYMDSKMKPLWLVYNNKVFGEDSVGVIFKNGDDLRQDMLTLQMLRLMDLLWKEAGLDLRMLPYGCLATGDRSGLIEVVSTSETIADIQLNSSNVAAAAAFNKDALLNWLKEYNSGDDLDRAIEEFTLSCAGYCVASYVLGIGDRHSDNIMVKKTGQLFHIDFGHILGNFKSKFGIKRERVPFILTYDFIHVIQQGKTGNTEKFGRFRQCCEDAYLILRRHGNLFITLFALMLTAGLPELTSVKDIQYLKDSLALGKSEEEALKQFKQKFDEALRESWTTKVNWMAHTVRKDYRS
T3 sequence (P27986 whole entry partner): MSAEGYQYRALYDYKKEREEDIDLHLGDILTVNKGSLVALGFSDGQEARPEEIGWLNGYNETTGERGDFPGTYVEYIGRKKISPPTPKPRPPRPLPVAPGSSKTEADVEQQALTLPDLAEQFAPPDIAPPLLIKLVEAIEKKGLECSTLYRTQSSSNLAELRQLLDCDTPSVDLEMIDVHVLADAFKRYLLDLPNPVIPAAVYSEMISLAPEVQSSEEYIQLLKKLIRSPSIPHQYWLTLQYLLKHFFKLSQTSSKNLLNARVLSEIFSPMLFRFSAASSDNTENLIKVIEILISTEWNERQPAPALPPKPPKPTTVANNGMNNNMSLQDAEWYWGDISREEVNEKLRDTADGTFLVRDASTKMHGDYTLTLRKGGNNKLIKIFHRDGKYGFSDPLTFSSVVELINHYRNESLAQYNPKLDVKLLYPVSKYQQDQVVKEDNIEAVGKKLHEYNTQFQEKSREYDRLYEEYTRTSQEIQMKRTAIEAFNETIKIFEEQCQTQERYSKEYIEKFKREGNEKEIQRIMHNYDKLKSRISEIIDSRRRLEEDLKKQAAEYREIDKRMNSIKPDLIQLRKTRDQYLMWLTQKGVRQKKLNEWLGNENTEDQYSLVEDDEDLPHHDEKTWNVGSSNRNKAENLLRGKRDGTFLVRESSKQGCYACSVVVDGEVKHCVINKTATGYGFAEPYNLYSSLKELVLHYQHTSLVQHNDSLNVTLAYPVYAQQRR
T1 sequence (P48736 whole entry): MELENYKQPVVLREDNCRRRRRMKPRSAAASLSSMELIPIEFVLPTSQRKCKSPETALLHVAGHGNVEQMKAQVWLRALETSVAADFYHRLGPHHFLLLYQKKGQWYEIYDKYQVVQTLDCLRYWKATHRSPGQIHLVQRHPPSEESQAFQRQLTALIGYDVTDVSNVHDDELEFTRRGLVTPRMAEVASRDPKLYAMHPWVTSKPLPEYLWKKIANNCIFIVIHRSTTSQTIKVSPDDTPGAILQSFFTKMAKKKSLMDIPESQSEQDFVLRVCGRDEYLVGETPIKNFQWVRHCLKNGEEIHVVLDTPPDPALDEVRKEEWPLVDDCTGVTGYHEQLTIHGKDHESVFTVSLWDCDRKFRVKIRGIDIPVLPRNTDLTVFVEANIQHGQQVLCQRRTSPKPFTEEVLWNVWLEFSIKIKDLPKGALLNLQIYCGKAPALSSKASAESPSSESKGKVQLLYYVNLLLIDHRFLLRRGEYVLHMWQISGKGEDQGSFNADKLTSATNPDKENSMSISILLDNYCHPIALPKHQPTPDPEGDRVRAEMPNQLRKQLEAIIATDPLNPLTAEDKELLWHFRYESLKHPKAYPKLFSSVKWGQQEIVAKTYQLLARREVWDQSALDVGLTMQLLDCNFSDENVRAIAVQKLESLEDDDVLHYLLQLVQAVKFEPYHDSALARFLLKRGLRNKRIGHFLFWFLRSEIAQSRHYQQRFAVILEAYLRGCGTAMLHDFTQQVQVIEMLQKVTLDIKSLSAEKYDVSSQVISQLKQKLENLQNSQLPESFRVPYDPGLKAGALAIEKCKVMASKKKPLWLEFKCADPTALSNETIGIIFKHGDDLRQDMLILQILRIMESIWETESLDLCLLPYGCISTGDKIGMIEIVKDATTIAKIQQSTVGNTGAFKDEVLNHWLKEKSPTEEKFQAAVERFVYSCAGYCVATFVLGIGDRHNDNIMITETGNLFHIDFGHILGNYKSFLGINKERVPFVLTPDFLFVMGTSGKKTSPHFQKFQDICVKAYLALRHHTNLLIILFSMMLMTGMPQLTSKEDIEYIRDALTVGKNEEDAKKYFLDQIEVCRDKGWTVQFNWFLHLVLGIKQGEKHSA
T2 sequence (O00329 whole entry): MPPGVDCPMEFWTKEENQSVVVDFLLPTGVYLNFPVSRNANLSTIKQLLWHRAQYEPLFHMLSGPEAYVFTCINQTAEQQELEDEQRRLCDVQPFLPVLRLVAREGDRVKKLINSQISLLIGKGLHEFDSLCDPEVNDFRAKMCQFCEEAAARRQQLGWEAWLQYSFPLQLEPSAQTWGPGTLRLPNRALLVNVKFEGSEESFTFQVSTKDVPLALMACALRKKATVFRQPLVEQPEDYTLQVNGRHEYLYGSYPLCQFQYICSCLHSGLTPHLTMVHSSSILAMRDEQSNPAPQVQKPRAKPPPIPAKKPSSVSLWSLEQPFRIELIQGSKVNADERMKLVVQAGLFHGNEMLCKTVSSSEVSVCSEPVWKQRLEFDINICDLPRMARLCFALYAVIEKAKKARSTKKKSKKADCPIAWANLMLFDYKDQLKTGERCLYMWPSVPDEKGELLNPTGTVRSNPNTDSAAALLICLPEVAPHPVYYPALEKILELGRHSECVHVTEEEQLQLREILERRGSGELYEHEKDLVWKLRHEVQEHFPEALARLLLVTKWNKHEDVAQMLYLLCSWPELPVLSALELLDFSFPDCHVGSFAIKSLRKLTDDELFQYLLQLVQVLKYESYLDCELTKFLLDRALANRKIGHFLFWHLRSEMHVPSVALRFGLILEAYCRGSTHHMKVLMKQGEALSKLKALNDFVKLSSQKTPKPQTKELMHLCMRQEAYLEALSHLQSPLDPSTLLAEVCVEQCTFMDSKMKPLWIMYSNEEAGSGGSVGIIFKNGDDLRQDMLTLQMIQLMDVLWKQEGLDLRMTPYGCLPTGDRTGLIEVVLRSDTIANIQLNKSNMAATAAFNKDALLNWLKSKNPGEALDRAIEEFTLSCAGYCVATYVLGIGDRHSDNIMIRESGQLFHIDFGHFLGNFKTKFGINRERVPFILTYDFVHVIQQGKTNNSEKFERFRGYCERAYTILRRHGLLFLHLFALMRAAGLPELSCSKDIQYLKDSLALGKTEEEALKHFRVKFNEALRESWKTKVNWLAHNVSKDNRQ
T2 sequence (P27986 whole entry partner): as the sequence (P27986 whole entry partner) above

A word on the IC50: it is the midpoint of a concentration-inhibition curve. With `Nc1nc(N)c(Cl)c(N[C@H](c2nc3cc(F)cc(Cl)c3c(=O)n2-c2cc[nH]n2)C2CC2)n1` [Compound 240, (S)-5-chloro-2-(cyclopropyl((2,6-diamino-5-chloropyrimidin-4-yl)amino)methyl)-7-fluoro-3-(1H-pyrazol-3-yl)quinazolin-4(3H)-one], the IC50 on PI3Kγ is > 10000 nM; against PI3Kδ, 42 nM; at PI3Kβ it was 99 nM.

Turning to `Cc1c[nH]nc1-n1c([C@@H](Nc2nc(N)nc(N)c2C#N)C2CC2)nc2c(C#N)cccc2c1=O` [Compound 241, (S)-2-(cyclopropyl((2,6-diamino-5-cyanopyrimidin-4-yl)amino)methyl)-3-(4-methyl-1H-pyrazol-3-yl)-4-oxo-3,4-dihydroquinazoline-8-carbonitrile], the IC50 at PI3Kγ was > 10000 nM; against PI3Kδ, 7 nM; at PI3Kβ, 93 nM.

`Cc1c[nH]nc1-n1c([C@@H](Nc2nc(N)nc(Cl)c2C#N)C2CC2)nc2cccc(Cl)c2c1=O` [Compound 243, (S)-2-amino-4-chloro-6-(((5-chloro-3-(4-methyl-1H-pyrazol-3-yl)-4-oxo-3,4-dihydroquinazolin-2-yl)(cyclopropyl)methyl)amino)pyrimidine-5-carbonitrile]: the IC50 on PI3Kγ stood at 3100 nM; against PI3Kδ, 34 nM; against PI3Kβ, 200 nM.

Take `Cc1c[nH]nc1-n1c([C@@H](Nc2nc(N)nc(C)c2C#N)C2CC2)nc2cccc(Cl)c2c1=O` [Compound 244, (S)-2-amino-4-(((5-chloro-3-(4-methyl-1H-pyrazol-3-yl)-4-oxo-3,4-dihydroquinazolin-2-yl)(cyclopropyl)methyl)amino)-6-methylpyrimidine-5-carbonitrile]: the IC50 was 960 nM on PI3Kγ, 8 nM at PI3Kδ and 31 nM against PI3Kβ.

For `CC[C@H](Nc1nc(N)nc(N)c1C#N)c1nc2cccc(C3CC3)c2c(=O)n1-c1cc[nH]n1` [Compound 245, (S)-2,4-diamino-6-((1-(5-cyclopropyl-4-oxo-3-(1H-pyrazol-3-yl)-3,4-dihydroquinazolin-2-yl)propyl)amino)pyrimidine-5-carbonitrile], the IC50 on PI3Kγ was 370 nM; on PI3Kδ it was 6 nM; at PI3Kβ it was 4 nM.

Consider `Cc1c[nH]nc1-n1c([C@@H](Nc2nc(N)nc(Cl)c2C#N)C2CC2)nc2c(C#N)cccc2c1=O` [Compound 246, (S)-2-(((2-amino-6-chloro-5-cyanopyrimidin-4-yl)amino)(cyclopropyl)methyl)-3-(4-methyl-1H-pyrazol-3-yl)-4-oxo-3,4-dihydroquinazoline-8-carbonitrile], for which the IC50 is > 10000 nM at PI3Kγ, 36 nM on PI3Kδ and 320 nM against PI3Kβ.

`Cc1c[nH]nc1-n1c([C@@H](Nc2nc(N)nc(N)c2C#N)C2CC2)nc2cccc(Cl)c2c1=O` [Compound 247, (S)-2,4-diamino-6-(((5-chloro-3-(4-methyl-1H-pyrazol-3-yl)-4-oxo-3,4-dihydroquinazolin-2-yl)(cyclopropyl)methyl)amino)pyrimidine-5-carbonitrile]: the IC50 on PI3Kγ is 730 nM; on PI3Kδ, 4 nM; against PI3Kβ it was 70 nM.

In the case of `Cc1c[nH]nc1-n1c([C@@H](Nc2nc(N)nc(N)c2Cl)C2CC2)nc2cccc(Cl)c2c1=O` [Compound 248, (S)-5-chloro-2-(cyclopropyl((2,6-diamino-5-chloropyrimidin-4-yl)amino)methyl)-3-(4-methyl-1H-pyrazol-3-yl)quinazolin-4(3H)-one], the IC50 on PI3Kγ worked out at 8600 nM; on PI3Kδ it was 45 nM; against PI3Kβ, 650 nM.

For `CCC[C@H](Nc1nc(N)nc(N)c1C#N)c1nc2cccc(Cl)c2c(=O)n1-c1cn[nH]c1` [Compound 249, (S)-2,4-diamino-6-((1-(5-chloro-4-oxo-3-(1H-pyrazol-4-yl)-3,4-dihydroquinazolin-2-yl)butyl)amino)pyrimidine-5-carbonitrile], the results for the IC50 on PI3Kγ, at PI3Kδ and at PI3Kβ were 160 nM, 1 nM and 3 nM, respectively.

For `CCC[C@H](Nc1nc(N)nc(N)c1Cl)c1nc2cccc(Cl)c2c(=O)n1-c1cn[nH]c1` [Compound 250, (S)-5-chloro-2-(1-((2,6-diamino-5-chloropyrimidin-4-yl)amino)butyl)-3-(1H-pyrazol-4-yl)quinazolin-4(3H)-one], the half-inhibitory concentration (IC50) at PI3Kγ is 2020 nM; against PI3Kδ, 23 nM; against PI3Kβ, 160 nM.

As for `CCC[C@H](Nc1nc(N)nc(N)c1C#N)c1nc2c(Cl)ccc(Cl)c2c(=O)n1-c1cn[nH]c1` [Compound 251, (S)-2,4-diamino-6-((1-(5,8-dichloro-4-oxo-3-(1H-pyrazol-4-yl)-3,4-dihydroquinazolin-2-yl)butyl)amino)pyrimidine-5-carbonitrile], the results for the IC50 at PI3Kγ, against PI3Kδ and on PI3Kβ were 770 nM, 2 nM and 10 nM, respectively.

For the compound `CCC[C@H](Nc1nc(N)nc(N)c1Cl)c1nc2c(Cl)ccc(Cl)c2c(=O)n1-c1cn[nH]c1` [Compound 252, (S)-5,8-dichloro-2-(1-((2,6-diamino-5-chloropyrimidin-4-yl)amino)butyl)-3-(1H-pyrazol-4-yl)quinazolin-4(3H)-one], the IC50 at PI3Kγ was > 10000 nM; against PI3Kδ, 75 nM; against PI3Kβ it was 920 nM.

Consider `CCC[C@H](Nc1nc(N)nc(N)c1C#N)c1nc2cccc(Cl)c2c(=O)n1-c1cc[nH]n1` [Compound 253, (S)-2,4-diamino-6-((1-(5-chloro-4-oxo-3-(1H-pyrazol-3-yl)-3,4-dihydroquinazolin-2-yl)butyl)amino)pyrimidine-5-carbonitrile], for which the results for the IC50 on PI3Kγ, against PI3Kδ and at PI3Kβ were 320 nM, 1 nM and 4 nM, respectively.

With `CCC[C@H](Nc1nc(N)nc(N)c1C#N)c1nc2c(Cl)ccc(Cl)c2c(=O)n1-c1cc[nH]n1` [Compound 254, (S)-2,4-diamino-6-((1-(5,8-dichloro-4-oxo-3-(1H-pyrazol-3-yl)-3,4-dihydroquinazolin-2-yl)butyl)amino)pyrimidine-5-carbonitrile], the results for the IC50 at PI3Kγ, against PI3Kδ and against PI3Kβ were 1400 nM, 2 nM and 2 nM, respectively.

In the case of `CCC[C@H](Nc1nc(N)nc(N)c1Cl)c1nc2c(Cl)ccc(Cl)c2c(=O)n1-c1cc[nH]n1` [Compound 255, (S)-5,8-dichloro-2-(1-((2,6-diamino-5-chloropyrimidin-4-yl)amino)butyl)-3-(1H-pyrazol-3-yl)quinazolin-4(3H)-one], the IC50 on PI3Kγ was > 10000 nM; against PI3Kδ, 30 nM; against PI3Kβ it was 150 nM.

With `CC[C@H](Nc1nc(N)nc(N)c1C#N)c1nc2c(Cl)cc(F)cc2c(=O)n1-c1cc[nH]n1` [Compound 258, (S)-2,4-diamino-6-((1-(8-chloro-6-fluoro-4-oxo-3-(1H-pyrazol-3-yl)-3,4-dihydroquinazolin-2-yl)propyl)amino)pyrimidine-5-carbonitrile], the IC50 on PI3Kγ came to 3900 nM; at PI3Kδ it was 3 nM; at PI3Kβ it was 7 nM.

In the case of `C[C@H](Nc1nc(N)nc(N)c1Cl)c1nc2ccc(F)c(Cl)c2c(=O)n1-c1cc[nH]n1` [Compound 259, (S)-5-chloro-2-(1-((2,6-diamino-5-chloropyrimidin-4-yl)amino)ethyl)-6-fluoro-3-(1H-pyrazol-3-yl)quinazolin-4(3H)-one], the figures for the IC50 at PI3Kγ, at PI3Kδ and against PI3Kβ were 3500 nM, 6 nM and 21 nM, respectively.

Take `C[C@H](Nc1nc(N)nc(N)c1C#N)c1nc2ccc(F)c(Cl)c2c(=O)n1-c1cc[nH]n1` [Compound 260, (S)-2,4-diamino-6-((1-(5-chloro-6-fluoro-4-oxo-3-(1H-pyrazol-3-yl)-3,4-dihydroquinazolin-2-yl)ethyl)amino)pyrimidine-5-carbonitrile]: the IC50 at PI3Kγ was 220 nM; at PI3Kδ it was 0.7 nM; against PI3Kβ, 2 nM.

Consider `Nc1nc(N)c(Cl)c(N[C@H](c2nc3ccc(F)c(Cl)c3c(=O)n2-c2cc[nH]n2)C2CC2)n1` [Compound 261, (S)-5-chloro-2-(cyclopropyl((2,6-diamino-5-chloropyrimidin-4-yl)amino)methyl)-6-fluoro-3-(1H-pyrazol-3-yl)quinazolin-4(3H)-one], for which the IC50 on PI3Kγ stood at 5200 nM; at PI3Kδ, 12 nM; against PI3Kβ, 49 nM.

In the case of `N#Cc1c(N)nc(N)nc1N[C@H](c1nc2ccc(F)c(Cl)c2c(=O)n1-c1cc[nH]n1)C1CC1` [Compound 262, (S)-2,4-diamino-6-(((5-chloro-6-fluoro-4-oxo-3-(1H-pyrazol-3-yl)-3,4-dihydroquinazolin-2-yl)(cyclopropyl)methyl)amino)pyrimidine-5-carbonitrile], the IC50 on PI3Kγ was found to be 405 nM; against PI3Kδ, 1 nM; against PI3Kβ, 5 nM.

With `C[C@H](Nc1nc(N)nc(N)c1Cl)c1nc2ccc(F)c(Cl)c2c(=O)n1-c1cn[nH]c1` [Compound 263, (S)-5-chloro-2-(1-((2,6-diamino-5-chloropyrimidin-4-yl)amino)ethyl)-6-fluoro-3-(1H-pyrazol-4-yl)quinazolin-4(3H)-one], the half-inhibitory concentration (IC50) worked out at 1200 nM on PI3Kγ, 20 nM against PI3Kδ and 190 nM at PI3Kβ.

`C[C@H](Nc1nc(N)nc(N)c1C#N)c1nc2ccc(F)c(Cl)c2c(=O)n1-c1cn[nH]c1` [Compound 264, (S)-2,4-diamino-6-((1-(5-chloro-6-fluoro-4-oxo-3-(1H-pyrazol-4-yl)-3,4-dihydroquinazolin-2-yl)ethyl)amino)pyrimidine-5-carbonitrile]: the results for the IC50 at PI3Kγ, on PI3Kδ and against PI3Kβ were 71 nM, 2 nM and 8 nM, respectively.

With `C[C@H](Nc1nc(N)nc(N)c1Cl)c1nc2c(Cl)cc(F)cc2c(=O)n1-c1cn[nH]c1` [Compound 265, (S)-8-chloro-2-(1-((2,6-diamino-5-chloropyrimidin-4-yl)amino)ethyl)-6-fluoro-3-(1H-pyrazol-4-yl)quinazolin-4(3H)-one], the IC50 on PI3Kγ amounted to 3100 nM; on PI3Kδ it was 31 nM; against PI3Kβ, 180 nM.
